Measurements: US9586959B2, “Substituted tricyclic heterocycles as histamine 4 receptor inhibitors” (C&C RESEARCH LABORATORIES, priority 2011, dated 2017)
Converted amounts (≈) assume the structure as drawn. Read-outs that look alike come from different tables or passages of the source.

Tests used:
[1] = target: human histamine 3 receptor (hH3R) (Homo sapiens (Human), UniProt Q9Y5N1); experiment: Binding affinity of human histamine 3 receptor (hH3R), [3H] labeled N-α-methylhistamine displacement; settings: hH3R-overexpressed cell membrane, [3H] N-α-methylhistamine
Chain of human histamine 3 receptor (hH3R) (Q9Y5N1 whole entry): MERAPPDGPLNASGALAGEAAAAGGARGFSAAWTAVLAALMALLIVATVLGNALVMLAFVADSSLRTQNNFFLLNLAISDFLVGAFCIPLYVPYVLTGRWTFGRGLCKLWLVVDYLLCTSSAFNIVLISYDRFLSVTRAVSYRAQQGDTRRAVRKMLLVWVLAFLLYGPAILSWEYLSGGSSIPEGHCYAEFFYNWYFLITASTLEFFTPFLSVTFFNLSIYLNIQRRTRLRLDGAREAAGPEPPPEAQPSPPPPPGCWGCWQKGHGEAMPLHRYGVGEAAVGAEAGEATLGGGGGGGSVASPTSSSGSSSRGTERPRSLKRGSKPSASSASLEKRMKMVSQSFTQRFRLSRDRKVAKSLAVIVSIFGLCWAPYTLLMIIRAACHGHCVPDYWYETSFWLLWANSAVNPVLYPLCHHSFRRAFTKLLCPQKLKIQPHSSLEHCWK
Method in brief: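 Membranes from cells overexpressing hH3R (15 μg) were incubated with compound and [3H]N-α-methylhistamine (20 μM stock) in 50 mM Tris-HCl pH 7.4, 5 mM MgCl2 for 30 min at 27 °C. Bound radioligand was counted by scintillation after filtration; 200 μM (R)(−)-α-methylhistamine stock defined non-specific binding; IC50 derived.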

[2] = tested on: histamine-induced mast cell migration (trachea); experiment: Histamine-induced mast cell migration; assay type: in vivo, Balb/c mice; settings: 20 mg/kg oral, 0.1 M histamine aerosol, 2 days
Protocol: Female, Balb/c mice (7 weeks old, 20±3 g) were purchased from OrientBio Co., Ltd.
The animals were housed under conditions of controlled temperature (23±3° C.), humidity (50±5%) and lighting with food and water available ad libitum.
Mice were dosed with either vehicle (20% cyclodextrin in second distilled water) or the compound by orally administration. The Compound (20 mg/kg) dissolved in a vehicle and administered orally at a volume of 10 mL/kg. After 15 minutes, mice were challenged by a 20 min aerosol inhalation of PBS (phosphate buffered saline) or 0.1 M histamine (dissolving in PBS). This process was repeated for 2 days. After a final challenge, the tracheae were cleared of blood via perfusion of PBS and tracheae were extracted, the tracheae were fixed in 10% (w/v) formaldehyde for subsequent paraffin cross-sectioning and toluidine blue staining. Total mast cells were calculated, and a mean was reported. (The Journal of Pharmacology and Experimental Therapeutics, 2004, 309, 404-413). Statistical analysis was analyzed using one-way ANOVA with Dunnett test. Values of p<0.05 were considered statistically significant.

[3] = target: human serotonin 3 receptor (human 5-HT3 receptor) (Homo sapiens (Human), UniProt P46098); experiment: Binding affinity of human serotonin 3 receptor (performed at Cerep)
Chain of human serotonin 3 receptor (human 5-HT3 receptor) (P46098 24-478): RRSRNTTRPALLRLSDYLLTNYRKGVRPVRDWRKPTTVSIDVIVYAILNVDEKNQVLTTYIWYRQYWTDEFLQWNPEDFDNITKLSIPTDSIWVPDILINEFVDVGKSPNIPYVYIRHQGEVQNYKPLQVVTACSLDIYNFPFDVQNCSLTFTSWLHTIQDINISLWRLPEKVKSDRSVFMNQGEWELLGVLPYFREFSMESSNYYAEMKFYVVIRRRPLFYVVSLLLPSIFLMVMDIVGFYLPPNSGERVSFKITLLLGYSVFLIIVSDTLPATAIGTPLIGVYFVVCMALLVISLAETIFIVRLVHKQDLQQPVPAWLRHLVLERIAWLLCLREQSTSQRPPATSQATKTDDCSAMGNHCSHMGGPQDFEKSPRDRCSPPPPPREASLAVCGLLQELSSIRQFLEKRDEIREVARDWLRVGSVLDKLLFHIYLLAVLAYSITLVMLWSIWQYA
Protocol: The binding assays of the human serotonin 3 receptor for present invention were performed at Cerep (Poitiers, France), and the results of analysis are shown in Table 3.

[4] = target: human histamine 4 receptor (hH4R) (Homo sapiens (Human), UniProt Q9H3N8); experiment: Binding affinity of human histamine 4 receptor (hH4R), [3H] labeled histamine displacement; settings: hH4R-overexpressed cell membrane, [3H] histamine
Chain of human histamine 4 receptor (hH4R) (Q9H3N8 whole entry): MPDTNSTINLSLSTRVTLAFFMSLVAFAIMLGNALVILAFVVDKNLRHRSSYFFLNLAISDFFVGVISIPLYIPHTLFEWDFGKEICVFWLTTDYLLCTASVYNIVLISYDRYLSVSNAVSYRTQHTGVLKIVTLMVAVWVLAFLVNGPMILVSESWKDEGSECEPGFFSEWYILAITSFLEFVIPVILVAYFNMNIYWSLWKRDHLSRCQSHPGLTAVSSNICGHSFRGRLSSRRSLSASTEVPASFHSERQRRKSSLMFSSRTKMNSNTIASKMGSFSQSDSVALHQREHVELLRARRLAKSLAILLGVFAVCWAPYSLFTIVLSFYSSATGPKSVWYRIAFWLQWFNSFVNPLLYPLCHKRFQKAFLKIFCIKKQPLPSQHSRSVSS
Method in brief: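 Membranes of hH4R-overexpressing cells (25 μg) incubated with compound and [3H]histamine (diluted to 1 μM before addition) for 30 min at 27° C. Non-specific binding defined with histamine (100 μM before addition); bound radioligand collected by filtration on PEI-presoaked glass fibre, washed with 50 mM Tris-HCl pH 7.4, counted by scintillation (CPM).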

[5] = Solubility in artificial gastrointestinal tract solution; assay type: physicochemical; settings: for solubility at 1 h / solubility at 2 h: artificial gastrointestinal tract solution, thermodynamic from solid; for solubility at 1 h: fassgf or other biorelevant; for solubility at 2 h: fassif
Method in brief: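 Two media were used: pH 1.2 NaCl/HCl with Triton X-100, and pH 6.5 phosphate buffer with sodium taurocholate and lecithin. Heated sample solutions were filtered to remove undissolved compound, diluted 1:1 with CH3CN, and solubility was measured by liquid chromatography.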

[6] = Metabolic stability in human microsome; settings: human microsome 1 mg/mL, 5 μM compound, 1 mM NADPH
[7] = Mouse pharmacokinetics (oral); assay type: in vivo; settings: ICR mouse, 5 mg/mL solution at 10 mL/kg; for Cmax / AUC(0-inf) / half-life: plasma, 50 mg/kg; for AUC(0-inf): read-out: Mouse pharmacokinetics AUCinf; for half-life: read-out: Mouse pharmacokinetics t1/2 (converted)
Protocol: (§1) The weight of each ICR mouse and SD rat was properly 20˜30 g and 200˜300 g, and dosage of the compound of the present invention was 10 mL/kg for mice and 5 mL/kg for rats, and administered orally using Zonde. Blood collection was performed at 0.25, 0.5, 1, 2, 4, 6, 8 and 24 hours by orbital venous blood collection using a capillary tube coated with an anticoagulant, and then plasma was isolated using a centrifuge and kept in a freezer.
(§2) Plasma collected from animals and standard concentration material were pretreated using solid-phase extraction, and concentration of the compound of the invention was determined using a liquid chromatography mass spectrometer (Agilent HPLC, API-3000).
(§3) According to the resulting concentration value, the pharmacokinetics parameter was found using WinNonlin (Version 6.2) and half-life (t1/2), maximum blood concentration (Cmax) and infinite area under the curve (AUCinf) are shown in Tables 6 and 7 below.

[8] = Metabolic stability in mouse microsome; settings: mouse microsome 1 mg/mL, 5 μM compound, 1 mM NADPH
[9] = Rat pharmacokinetics (oral); assay type: in vivo; settings: SD rat, 2 mg/mL solution at 5 mL/kg
Protocol: as §1, §2, §3

[10] = microsomes, 5 μM, pH 7.4
[11] = microsomes, 5 μM, pH 7.4; remark: listed apart in the source
[12] = tested on: histamine-induced itching, ICR mice; experiment: Histamine-induced itching model in ICR mice; assay type: in vivo; settings: 50 mg/kg oral, histamine 300 nmol intradermal, 20 min count
Protocol: Female, ICR mice (8 weeks old) were purchased from OrientBio Co., Ltd. The animals were housed under conditions of controlled temperature (23±3° C.), humidity (50±5%) and lighting with food and water available ad libitum.
The hair was clipped using clippers (8000AD, THRIVE) over the rostral part of the back 24 hours before the experiment under anesthesia with isoflurane. Histamine (300 nmol) was dissolved in saline and a volume of 40 μL injected intradermally into the rostral part of the back. Mice were dosed with either vehicle (20% cyclodextrin in second distilled water) or the compound by orally administration. The Compound (50 mg/kg) dissolved in a vehicle (20% cyclodextrin in second distilled water) and administered orally at a volume of 10 mL/kg.
Mice (n=10 per group) were divided into 3 groups (normal group, control group and experimental group). The animals were randomized for similar body weight distribution. A vehicle or the compound was administered 20 minutes before injection of histamine or saline. Immediately after intradermal injection, the animals were returned to an acrylic cage (approximately 30×30×30 cm, access production) composed of four cells, to which they had been acclimated for at least 1 hour before the experiment, for observation of itch responses. A camera (Samsung, VLUUNV30) was positioned above the mice to record their response. Itch was measured by blinded counting of the number of scratching in the 20 min period immediately after the intradermal injection. A number of scratching was defined as 3 or more individual rapid scratch movements with the hind paws around the injection site (J. Allergy Clin. Immunol. 2007, 19(1), 176-183). All data were analyzed by using Excel and Prism, and all values are expressed as the mean±S.E.M. The inhibitory effect of compounds is shown as a percentage of the maximal response to histamine (100% control group).
Statistical analysis was analyzed using one-way ANOVA with Dunnett test. Values of p<0.05 were considered statistically significant.

[13] = tested on: oxazolone-induced atopic dermatitis, Balb/c mice; experiment: Oxazolone-induced atopic dermatitis model in Balb/c mice; assay type: in vivo; settings: 100 mg/kg, BID, oral, days 8-28
Protocol: Female, Balb/c mice (6 weeks old, 20±3 g) were purchased from OrientBio Co., Ltd. The animals were housed under conditions of controlled temperature (23±3° C.), humidity (50±5%) and lighting with food and water available ad libitum.
On the beginning day (day 1), mice were sensitized by the topical application of 50 μL of 1% oxazolone in acetone and olive oil (4:1 ratio) on the abdominal skin. On day 8, 10, 12, 15, 17, 19, 22, 24 and 26, 25 μL of 0.2% oxazolone was applied topically on the inner side of right ear of each mouse. Between days 8 and 28, the compound of the invention was administered orally (10 mL/kg) twice a day in the morning and afternoon, and on days 12, 19 and 27, the thickness of the right ear of the mouse was measured. On day 28, the ear tissue of the mouse was extracted, fixed in 10% formalin solution, and then a tissue slide was prepared, stained with H&E (hematoxylin & eosin), and then the thickness of the ear was observed (Journal of Investigative Dermatology, 2008, 128, 79-86). Statistical analysis was analyzed using one-way ANOVA with Dunnett test. Values of p<0.05 were considered statistically significant.

[14] = first solution pH 1.2, 2 mg/mL sample, 37° C. 1 hour
[15] = second solution pH 6.5, 2 mg/mL sample, 37° C. 2 hours

Row | SMILES | IC50 [1] | Mast cell migration (% change from control group) [2] | IC50 [4] | solubility at 1 h [5, 14] | solubility at 2 h [5, 15] | Metabolic stability (CLh. int), Human [6] | Cmax [7] | AUC(0-inf) [7] | half-life [7] | Metabolic stability (CLh. int), Mouse [8] | also measured
1 | CNC1CN(c2nc3ncc(C#N)cc3n3cnnc23)C1 [Compound 25, 4-(3-(Methylamino)azetidin-1-yl)pyrido[2,3-e][1,2,4]triazolo[4,3-a]pyrazin-8-carbonitrile] | > 100000 nM | 48.4^1% | 100 nM | 1930 µg/mL (≈ 6.87 mM) | 1380 µg/mL (≈ 4.94 mM) | 4160 µL/min/mg | 9760 ng/mL | 14000 ng·h/mL | 1.17 h | 4590 µL/min/mg | inhibition at 10 µM ([3]; read-out: % inhibition degree at 10 μM, human serotonin 3 receptor (h5-HT3R)): 0%; IC50 ([3]; read-out: Binding affinity (IC50) of human serotonin 3 receptor (h5-HT3R)): > 10000 nM; Cmax ([9]; plasma, 10 mg/kg): 970 ng/mL; AUC(0-inf) ([9]; plasma, 10 mg/kg, read-out: Rat pharmacokinetics AUCinf): 2920 ng·h/mL; half-life ([9]; plasma, 10 mg/kg, read-out: Rat pharmacokinetics t1/2 (converted)): 2.21 h
2 | Clc1cnc2nc(N3CCN4CCCC4C3)c3nncn3c2c1 (centres unmarked) [Compound 29, 8-Chloro-4-(hexahydropyrrolo[1,2-a]pyrazin-2(1H)-yl)pyrido[2,3-e][1,2,4]triazolo[4,3-a]pyrazine] |  |  | 49 nM | 1560 µg/mL (≈ 4.73 mM) | 1990 µg/mL (≈ 6.04 mM) |  |  |  |  |  | Metabolic stability (CLh. int), Human [10]: 3950 µL/min/mg; Metabolic stability (CLh. int), Mouse [11]: 12070 µL/min/mg
3 | Cc1nc2c3cc(Cl)cnc3nc(N3CCN(C)CC3)n2n1 [Compound 31, 9-Chloro-2-methyl-5-(4-methylpiperazin-1-yl)pyrido[3,2-e][1,2,4]triazolo[1,5-c]pyrimidine] | > 100000 nM |  | 16 nM | 2010 µg/mL (≈ 6.33 mM) | 1980 µg/mL (≈ 6.23 mM) | 5190 µL/min/mg | 11700 ng/mL | 22400 ng·h/mL | 1.79 h | 28630 µL/min/mg | Number of scratching (% changes from control group) [12]: 89.3^1%
4 | CN1CCN(c2nc3ccc(Cl)cc3n3cnnc23)CC1 [reference compound] | 9000 nM | 23.1^1% | 22 nM |  |  | 10990 µL/min/mg |  |  |  | 111630 µL/min/mg | Solubility, First solution (pH = 1.2) [5, 14]: 1708.3 μg/mL; Solubility, Second solution (pH = 6.5) [5, 15]: 320.1 μg/mL; Mouse pharmacokinetics AUCinf [7]: 6650 ng·h/mL; Mouse pharmacokinetics Cmax [7]: 3840 ng/mL; Mouse pharmacokinetics t1/2 [7]: 3.49 h; Rat pharmacokinetics AUCinf [9]: 1060 ng·h/mL; Rat pharmacokinetics Cmax [9]: 490 ng/mL; Rat pharmacokinetics t1/2 [9]: 1.09 h; Ear epidermis thickness (% change from control group) [13]: 8.0%
